{"source": "patent US20080176251A1", "about": "“Preparation of high purity phenothiazine N-alkylsulfonates and their use in chemiluminescent assays for the measurement of peroxidase acitivity” (Cyanagen Srl, priority 2007, published 2008)", "key": {"[1]": {"test_system": "peroxidase enzyme", "details": "phenothiazine present as impurity in the enhancer; according to U.S. Pat. No. 6,432,662; cited from earlier work"}, "[2]": {"test_system": "horseradish peroxidase (HRP-Type VIIA)", "experiment": "pH dependence of the enhanced luminol-peroxide-peroxidase chemiluminescent reaction (Example 5)", "format": "biochemical", "details": "5.0 mM luminol, 4.00 mM perborate, 1.50 mM enhancer; all pH values", "protocol": "All measurements reported in Example 5 were carried out with a fluorimeter (Varian Eclipse), Bio/Chemiluminescence Mode (wavelength of emission: 425 nm; emission slit: 10 nm; emission filter: open; photomultiplier voltage: medium). A series of substrates in 0.125 M, pH 9.1 Tris Buffer is prepared, with the following composition: • [luminol sodium salt]=5.0 mM. • [sodium perborate]=4.00 mM • 3-(phenothiazin-10-yl)propane-1-sulfonate=1.50 mM\nA series of polymethylmethacrylate fluorimetry cuvettes is prepared, each containing of containing 2 mL of substrate. To each cuvette is added a small amount of 5M or 12M HCl, in order to adjust the pH to the following values: 9.02, 8.76, 8.51, 8.41, 8.28, 8.14 and 7.95, and limiting changes in the total volume to less than 5%. Then to each cuvette are added 10 μL of a 0.5 μg/mL solution of horseradish peroxidase (HRP-Type VIIA). After mixing the solution with a vortex for a few seconds, measurement of the luminescent signal is initiated. […] From the results obtained, which are shown in FIG. 3, it is evident that the chemiluminescent signal reaches the maximum value in the range between pH 8.3 and pH 8.6."}, "[3]": {"test_system": "horseradish peroxidase (HRP-Type VIIA)", "experiment": "luminol-peroxide-peroxidase chemiluminescent reaction, dependence on enhancer concentration (Example 3)", "format": "biochemical", "details": "2.50 mM luminol, 2.00 mM perborate, pH 8.6", "protocol": "All measurements reported in Example 3 were carried out with a spectrofluorimeter (Varian Eclipse), Bio/Chemiluminescence Mode (wavelength of emission: 425 nm; emission slit: 20 nm). A series of substrates in 0.1 M, pH 8.6 Tris Buffer is prepared, with the following compositions: • [luminol sodium salt]=2.50 mM • [sodium perborate]=2.00 mM • 3-(phenothiazin-10-yl)propane-1-sulfonate=11.5 μM, 23 μM, 47 μM, 94 μM, 188 μM, 375 μM, 1500 μM e 3000 μM.\nTo a polymethylmethacrylate fluorimetry cuvette of containing 2 mL of each substrate, is added 10 μL of a solution of 0.5 μg/mL of horseradish peroxidase (HRP-Type VIIA). After mixing the solution with a vortex for a few seconds, measurement of the luminescent signal is initiated. […] The dependence of the chemiluminescent signal (plateau value) for each substrate, is reported graphically in FIG. 1. The luminescent signal grows very rapidly with increasing concentration of the enhancer, 3-(phenothiazin-10-yl)propane-1-sulfonate, until it reaches a maximum value between 0.5 and 1 mM. Further raising the concentration of the enhancer, the chemiluminescent signal begins to decline slowly. At the highest concentration of enhancer, 3.0 mM, the signal is approximately 70% of the maximum value."}, "[4]": {"test_system": "horseradish peroxidase (HRP-Type VIIA)", "experiment": "enhanced luminol-peroxide-peroxidase chemiluminescent reaction, dependence on luminol concentration (Example 4)", "format": "biochemical", "protocol": "All measurements reported in Example 4 were carried out with a spectrofluorimeter (Varian Eclipse), Bio/Chemiluminescence Mode (wavelength of emission: 425 nm; emission slit: 20 nm). A series of substrates in 0.1 M, pH 8.6 Tris Buffer is prepared, with the following compositions: • [luminol sodium salt]=0.625 mM, 1.25 mM, 2.50 mM, 5.0 mM, 10 mM. • [sodium perborate]=2.00 mM • 3-(phenothiazin-10-yl)propane-1-sulfonate=0.75 mM\nTo a polymethylmethacrylate fluorimetry cuvette of containing 2 mL of each substrate, is added 10 μL of a solution of 0.5 μg/mL of horseradish peroxidase (HRP-Type VIIA). After mixing the solution with a vortex for a few seconds, measurement of the luminescent signal is initiated. […] The dependence of the chemiluminescent signal (plateau value) for each substrate, is reported graphically in FIG. 2. The luminescent signal gradually grows very rapidly with increasing concentration of the luminol, until it reaches a maximum value between 0.5 and 1 mM. Further raising the concentration of the enhancer, the chemiluminescent signal begins to decline slowly. At the highest concentration of enhancer, 3.0 mM, the signal is approximately 70% of the maximum value. The luminescent signal grows gradually, and reaches a plateau at the highest concentration of luminol used in the experiment, 10 mM."}, "[5]": {"test_system": "peroxidase", "details": "results obtained by Fujirebio, U.S. Pat. No. 5,171,668; cited from earlier work"}}, "data": [{"compound": "c1ccc2c(c1)Nc1ccccc1S2", "note": "[phenothiazine]", "values": [{"measurement": "effect on the peroxidase enzyme", "setting": "[1]", "result": "deactivates the peroxidase enzyme"}]}, {"compound": "O=S(=O)([O-])CCCN1c2ccccc2Sc2ccccc21.[Na+]", "note": "[sodium 3-(phenothiazin-10-yl)propane-1-sulfonate]", "values": [{"measurement": "time course of the chemiluminescent signal", "setting": "[2]", "result": "reaches a constant value within a few seconds"}, {"measurement": "time course of the chemiluminescent signal", "setting": "[3]; all enhancer concentrations", "result": "reaches a plateau within a few minutes, and then remains stable for at least thirty minutes"}, {"measurement": "chemiluminescent signal relative to the maximum value", "setting": "[3]; highest concentration of enhancer, 3.0 mM", "result": "approximately 70%"}, {"measurement": "time course of the chemiluminescent signal", "setting": "[4]; 0.75 mM enhancer, 2.00 mM perborate, luminol 0.625-10 mM, pH 8.6", "result": "reaches a plateau within a few minutes, and then remains stable for at least thirty minutes"}, {"measurement": "luminol concentration at which the luminescent signal reaches a plateau", "setting": "[4]; 0.75 mM enhancer, 2.00 mM perborate, pH 8.6, highest luminol concentration used", "result": 10, "unit": "mM"}, {"measurement": "chemiluminescent signal relative to the maximum value", "setting": "[4]; as printed in Example 4: highest concentration of enhancer, 3.0 mM", "result": "approximately 70%"}, {"measurement": "enhancement of luminol chemiluminescence compared with standard enhancer 4-iodophenol", "setting": "[5]", "result": "not significantly better than those observed with a standard enhancer such as 4-iodophenol"}]}]}
